Assay results taken from patent US20070167408A1, “NOVEL ALKYL PHOSPHOLIPID DERIVATIVES WITH REDUCED CYTOTOXICITY AND USES THEREOF” (ZENTARIS GmbH, priority 2005, published 2007).
Converted amounts (≈) assume the structure as drawn.

What was measured:
[1] = tested on: Moraxella catarrhalis DMS 11994 (ATCC 43617); assay: Anti-bacterial bouillon microdilution assay (MIC), bacterium D; type: cell-based; settings: 24 h
Procedure: (§1) Selected compounds of the invention were tested in a bouillon microdilution assay method according to the DIN 58940 (www.din.de) guidelines for determination of susceptibility of bacterial strains with regard to cell growth inhibition. The assay method quantifies bacterial cell growth which corresponds to the turbidity of the liquid culture medium by photometric measurement carried out at 595 nm.
(§2) The method of MIC determination was performed according to DIN 58940-5. The volumina were adapted according to the microdilution method as described in DIN 58940-7 guideline.
(§3) Dependent on water solubility, compounds of the invention were dissolved either in water or ethanol in a concentration of 10 mg/ml. Subsequently, the stock was further diluted in water to a concentration of 512 μg/ml. The following serial dilutions (factor 2) were performed in water resulting in the following […] testing concentrations: 256 μg/ml, 128 μg/ml, 64 μg/ml, 32 μg/ml, 16 μg/ml, 8 μg/ml, 4 μg/ml, 2 μg/ml, 1 μg/ml, 0.5 μg/ml, 0.25 μg/ml and 0.125 μg/ml. Diluted compounds of the invention were transferred in 100 μl volume to the microtiter plate wells.
(§4) Pre-cultures of bacteria were grown in appropriate liquid media (refer to ATCC webpage, www.atcc.org) and afterwards were inoculated in corresponding liquid medium. 100 μl of the inoculums [adjusted to an amount of app. 1×10^6 microorganisms per ml (range of 10^5-10^8 microorganisms per ml)] were added to each of the testing compound concentrations and cultivated under the appropriate conditions.
(§5) Before and after incubation, bacterial growth was determined by photometric analysis against a positive control containing growing bacteria without compound and a sterile/negative control containing only the medium.

[2] = tested on: Bacteroides fragilis DSM 2151 (ATCC 25285); assay: Anti-bacterial bouillon microdilution assay (MIC), bacterium E; type: cell-based; settings: anaerob, 24 h
Procedure: as §1, §2, §3, §4, §5

[3] = tested on: Aspergillus fumigatus ATCC 204305; assay: Anti-fungal broth microdilution (MIC), fungus A; type: cell-based; settings: filamentous protocol, more than 50% growth inhibition, 48 to 72 h
Procedure: (§6) Anti-fungal activity of selected compounds of the invention was assessed by means of anti-fungal susceptibility tests as follows.
(§7) The antifungal activities of the compounds of the invention against different fungi were measured according to standard broth microdilution methods of the US National Committee for Clinical Laboratory standards (NCCLS) for yeasts (NCCLS document M27-A, 1997) and filamentous fungi (NCCLS document M38-A, 2002).
(§8) Stock solutions of compounds of the invention were freshly prepared on the days of experiments equal to 1.28 mg/10 ml media. Serial dilutions were performed to achieve the following testing concentrations: 64 μg/ml, 32 μg/ml, 16 μg/ml, 8 μg/ml, 4 μg/ml, 2 μg/ml, 1 μg/ml, 0.5 μg/ml, 0.25 μg/ml and 0.125 μg/ml.
(§9) An inoculum of 10^6 CFU/ml of the fungi strain was prepared in the appropriate medium and transferred to test tubes for incubation.
(§10) The method is used to determine the minimum inhibitory concentrations (MIC) of drugs on fungi strains. […] For the filamentous fungi protocol, MIC determination took place after 48 to 72 h of culture at 35° C. and was defined at that concentration which produced more than 50% visible growth inhibition.

[4] = tested on: Aspergillus fumigatus 322-384; assay: Anti-fungal broth microdilution (MIC), fungus B; type: cell-based; settings: filamentous protocol, more than 50% growth inhibition, 48 to 72 h
Procedure: as §6, §7, §8, §9, §10

[5] = tested on: Aspergillus fumigatus 040-200167; assay: Anti-fungal broth microdilution (MIC), fungus C; type: cell-based; settings: filamentous protocol, more than 50% growth inhibition, 48 to 72 h
Procedure: as §6, §7, §8, §9, §10

[6] = tested on: Candida albicans ATCC 10231; assay: Anti-fungal broth microdilution (MIC), fungus D; type: cell-based; settings: yeast protocol, more than 80% inhibition, 48 h
Procedure: as §6, §7, §8, §9, §10

[7] = tested on: Candida albicans ATCC 90028; assay: Anti-fungal broth microdilution (MIC), fungus E; type: cell-based; settings: yeast protocol, more than 80% inhibition, 48 h
Procedure: as §6, §7, §8, §9, §10

Candida albicans TS3 = assay: Anti-fungal broth microdilution (MIC), fungus F; type: cell-based; settings: yeast protocol, more than 80% inhibition, 48 h
Procedure: as §6, §7, §8, §9, §10

[8] = tested on: Candida parapsilosis ATCC 22019; assay: Anti-fungal broth microdilution (MIC), fungus G; type: cell-based; settings: yeast protocol, more than 80% inhibition, 48 h
Procedure: as §6, §7, §8, §9, §10

[9] = tested on: Cryptococcus neoformans ATCC 90112; assay: Anti-fungal broth microdilution (MIC), fungus H; type: cell-based; settings: yeast protocol, more than 80% inhibition, 48 h
Procedure: as §6, §7, §8, §9, §10

[10] = tested on: Cryptococcus neoformans H99; assay: Anti-fungal broth microdilution (MIC), fungus I; type: cell-based; settings: yeast protocol, more than 80% inhibition, 48 h
Procedure: as §6, §7, §8, §9, §10

[11] = tested on: Cryptococcus gattii ATCC 32608; assay: Anti-fungal broth microdilution (MIC), fungus J; type: cell-based; settings: yeast protocol, more than 80% inhibition, 48 h
Procedure: as §6, §7, §8, §9, §10

[12] = tested on: Trypanosoma cruzi (Tulahuan-LACZ amstigotes in PEM); assay: In vitro drug activity assay, protozoon A; type: cell-based; settings: amastigotes in murine peritoneal macrophages, 3 days
Procedure: (§11) In vitro activity of selected compounds of the invention against different protozoa was assessed as follows.
Murine (CD1) peritoneal macrophages were harvested 24 hours after starch induction and dispensed into 96-well plates at a concentration of 4×10^5 mL. After 24 hours, the cells were infected with Trypanosoma cruzi Tulahuan LAC-Z amastigotes (grown and cultured according to Buckner et al., Infection and Immunity 1999, 67(1): 403-409). 24 hours later, the infected cells were exposed to the test compounds (compounds of the invention as well as known prior art compounds) for 3 days and 50 μL of 500 μM CPRG-1% Nonidet P-40 was added to each well. The plates were read after 2 to 5 hours at 570 nm (Buckner et al., Antimicrobial Agents and Chemotherapy 1996, 40(11): 2592-2597). ED50 values were calculated with Msxlfit (IDBS).
(§12) The following protozoa were assessed: • A) Trypanosoma cruzi (Tulahuan-LACZ amstigotes in PEM, Lorente S O et al., Antimicrobial agents and chemotherapy 2004, 48(8): 2937-2950; Buckner et al., Infection and Immunity 1999, 67(1): 403-409; Buckner et al., Antimicrobial Agents and Chemotherapy 1996, 40(11): 2592-2597) • B) Trypanosoma brucei rhodesiense (strain STIB900, Lorente S O et al., Antimicrobial agents and chemotherapy 2004, 48(8): 2937-2950; Habtemariam S, BMC Pharmacology 2003, 3:6) • C) Plasmodium falciparum (strain K1, Korsinczky M et al., Antimicrobial agents and chemotherapy 2000, 44(8): 2100-2108; Thaitong S and Beale G H, Trans. R. Soc. Trop. Med. Hyg. 1981, 75: 271-273; Trager W and Jensen J B, Science 1976, 193: 673-675) • D) Plasmodium faiciparum (strain 3D7, Mu et al., PLoS Biology 2005, 3(10): e335)

[13] = tested on: Trypanosoma brucei rhodesiense (strain STIB900); assay: In vitro drug activity assay, protozoon B; type: cell-based; settings: bloodstream form trypomastigotes, 72 hours, Alamar Blue
Procedure: as §11
Trypanosoma brucei rhodesiense STIB900 bloodstream form trypomastigotes were maintained in HMI-18 medium (Hirumi H, Hirumi K, J Parasitol. 1989, 75(6):985-989) with 15% heat-inactivated fetal calf serum at 37° C., 5% CO2, humidified atmosphere. Trypomastigotes were washed and resuspended in fresh medium at a concentration of 2×10^5 mL. Test compounds were given to the trypomastigotes and plates were incubated for 72 hours at 37° C., 5% CO2, humidified atmosphere. At 72 hours the plates were assessed microscopically before Alamar Blue was added (Raz et al., Acta Trop. 1997, 68: 139-147). Plates were read after 5 to 6 hours at EX/EM 530/585 nm with a filter cutoff at 550 nm. ED50 values were calculated with Msxlfit (IDBS).
as §12

[14] = tested on: Plasmodium falciparum (strain K1); assay: In vitro drug activity assay, protozoon C; type: cell-based; settings: strain K1, 3[H]-hypoxanthine method
Procedure: as §11
(§13) Plasmodium falciparum strain K1 and strain 3D7 parasites were cultured according to Trager W and Jensen J B (Science 1976, 193: 673-675). In vitro drug susceptibility assays with the test compounds were carried out according to Korsinczky M et al. (Antimicrobial agents and chemotherapy 2000, 44(8): 2100-2108) and Fivelman Q L et al. (Antimicrobial agents and chemotherapy 2004, 48(11): 4097-4102) using a ^3[H]-hypoxanthine radioisotope method. ED50 values were calculated with Msxlfit (IDBS).
as §12

[15] = tested on: Plasmodium faiciparum (strain 3D7); assay: In vitro drug activity assay, protozoon D; type: cell-based, Plasmodium falciparum; settings: strain 3D7, 3[H]-hypoxanthine method
Procedure: as §11, §13, §12

[16] = tested on: epimastigotes of Trypanosoma cruzi strain Y; assay: In vitro activity of miltefosine and benznidazole against epimastigotes; type: cell-based; settings: 72 h
Procedure: In vitro activity of Miltefosine and Benznidazole in the course of a combination treatment against Trypanosoma cruzi strain Y was assessed compared to the respective single treatments with miltefosine or benznidazole alone.
Miltefosine and Benznidazol were tested in vitro in combination against epimastigote forms of Trypanosoma cruzi strain Y which were isolated from a chagasic patient in Sao Paulo, Brazil and obtained from Dr. Victor Nussenzweig (Silva, L H. and Nussenzweig, V.; Folia clin. biol., 20: 191-207, 1953). This T. cruzi Y strain can also be ordered at ATCC 50832, while the ATCC strain must be re-adapted by several passages through mice in order to regain the strain's original characteristics of differentiation and virulence.
Epimastigotes were axenially cultured in brain heart infusion medium (BHI, Becton, Dickinson, Cat. No. 221812) supplemented with 10 mg of hemin per liter and 5% heat inactivated fetal calf serum (FCS) at 28° C. with shaking (˜80 rpm) up to a maximum of 10-12 passages, before the cultures were aged to obtain metacyclics that were purified on a DE-52 column (Whatman DEAE cellulose ion exchange column, Waco, Cat. No. 17050-03 or 17050-04) and injected into mice. After 2-4 weeks parasites were recovered from blood and placed back into axenic culture.
Stock solutions of Miltefosine and Benznidazol in concentrations of 10 mg/ml and 20 mg/ml dissolved in methanol were used. Stock solutions were serially diluted with a factor of 2 in BHI-FCS medium. For Benznidazol the following testing concentrations were used: 80 μg/ml, 40 μg/ml, 20 μg/ml, 10 μg/ml, 5 μg/ml and 2.5 μg/ml. The testing concentrations for Miltefosine were 20 μg/ml, 10 μg/ml, 5 μg/ml, 2.5 μg/ml, 1.25 μg/ml and 0.625 μg/ml.
2×10^6 epimastigotes were incubated in BHI-FCS medium with Miltefosine and Benznidazol in a final volume of 200 μl. After 72 h incubation at 28° C., parasite growth was determined by direct counting the number of parasites with a Neubauer chamber. The 50% inhibitory concentrations were determined by linear regression analysis.

SMILES | MIC, bacterium D [1] [µg/mL] | MIC, bacterium E [2] [µg/mL] | MIC, fungus A [3] [µg/mL] | MIC, fungus B [4] [µg/mL] | MIC, fungus C [5] [µg/mL] | MIC, fungus D [6] [µg/mL] | MIC, fungus E [7] [µg/mL] | MIC, fungus F (Candida albicans TS3) [µg/mL] | MIC, fungus G [8] [µg/mL] | MIC, fungus H [9] [µg/mL] | MIC, fungus I [10] [µg/mL] | MIC, fungus J [11] [µg/mL] | ED50 (μg/mL), protozoon A [12] [µg/mL] | ED50 (μg/mL), protozoon B [13] [µg/mL] | ED50 (μg/mL), protozoon C [14] [µg/mL] | ED50 (μg/mL), protozoon D [15] [µg/mL] | Epimastigotes [amount/mL] ([16]; benznidazole 5 ug/mL) | Epimastigotes [amount/mL] ([16]; benznidazole 10 ug/mL) | Epimastigotes [amount/mL] ([16]; benznidazole 40 ug/mL)
CCCCCCCCCCCCCCCCOP(=O)([O-])OCC[N+]12CCC(CC1)CC2 [Compound 3, Phosphoric acid 2-(1-aza-bicyclo[2.2.2]oct-1-yl)-ethyl ester hexadecyl ester] | 8 (≈ 17.4 µM) | 128 (≈ 278 µM) | 3 (≈ 6.53 µM) | 2 (≈ 4.35 µM) | 4 (≈ 8.7 µM) | 1 (≈ 2.18 µM) | 1 (≈ 2.18 µM) | 2 (≈ 4.35 µM) | 2 (≈ 4.35 µM) | 1.5 (≈ 3.26 µM) | 1 (≈ 2.18 µM) | 0.75 (≈ 1.63 µM) | 0.33 (≈ 0.718 µM) | 25.03 (≈ 54.5 µM) | 8.03 (≈ 17.5 µM) | 2.25 (≈ 4.9 µM) | – | – | –
O=C(Cn1ccnc1[N+](=O)[O-])NCc1ccccc1 [benznidazole, N-Benzyl-2-nitroimidazol-1-yl-acetamide] | – | – | – | – | – | – | – | – | – | – | – | – | 0.22 (≈ 0.845 µM) | – | – | – | 455.833 | 358.333 | 190.000
